According to patent US20230172984A1, “CLEARANCE OF SENESCENT CELLS BY ACTIVATION OF iNKT CELLS” (THE REGENTS OF THE UNIVERSITY OF CALIFORNIA, priority 2020, published 2023):

Assays:
[1] = Bleomycin lung injury, hydroxyproline assay (whole lung collagen content); type: in vivo, mouse; details: bleomycin 3 U/kg, α-GalCer or vehicle at day 10; FIG. 4D
Description: MATERIALS AND METHODS. Mouse husbandry. All procedures involving mice were performed according to the IACUC standards following ethics approval by the animal committee at the University of California, San Francisco. Male C57BL6/J on chow or HFD fed mice. HFD mice were fed a high-fat diet (60% kcal from fat) from 6 weeks until 22 weeks of age. All experiments on HFD mice were performed at 22-24 weeks total age (16-18 weeks on HFD). Age-matched male C57BL6/J mice on standard rodent chow diet were used as controls. For the lung injury model, 10-week-old male C57BL/6J mice were used. The animals were divided into three groups: the control group, the injured group, and the α-GalCer treated group. The animals in the control group received vehicle only (i.p.) on day 10. The injured group animals received bleomycin (3 U/kg) via the intratracheal route at the start of the experiment (day 0). The animals in the α-GalCer treated groups received bleomycin (3 U/kg) on day 0, and i.p. injection of α-GalCer (2 μg/mouse) on day 10. The animals in all the groups were sacrificed on day 14, and lungs were harvested for isolation of primary pulmonary Alveolar Type II cells (ATII) on the same day. For the hydroxyproline assay, mice were euthanized 21 days after injury. Bleomycin lung injury. […] Absorbance was measured at 550 nm and the values were computed from the standard curve.

[2] = test system: senescent preadipocytes (C12FDG^Hi) in eWAT of HFD mice; assay: C12FDG flow cytometry assay (SA-βgal activity) on eWAT SVF of HFD mice; type: in vivo, mouse
Description: MATERIALS AND METHODS. Mouse husbandry. All procedures involving mice were performed according to the IACUC standards following ethics approval by the animal committee at the University of California, San Francisco. Male C57BL6/J on chow or HFD fed mice. HFD mice were fed a high-fat diet (60% kcal from fat) from 6 weeks until 22 weeks of age. All experiments on HFD mice were performed at 22-24 weeks total age (16-18 weeks on HFD). Age-matched male C57BL6/J mice on standard rodent chow diet were used as controls. For the lung injury model, 10-week-old male C57BL/6J mice were used. The animals were divided into three groups: the control group, the injured group, and the α-GalCer treated group. The animals in the control group received vehicle only (i.p.) on day 10. The injured group animals received bleomycin (3 U/kg) via the intratracheal route at the start of the experiment (day 0). The animals in the α-GalCer treated groups received bleomycin (3 U/kg) on day 0, and i.p. injection of α-GalCer (2 μg/mouse) on day 10. The animals in all the groups were sacrificed on day 14, and lungs were harvested for isolation of primary pulmonary Alveolar Type II cells (ATII) on the same day. For the hydroxyproline assay, mice were euthanized 21 days after injury.
Epidydmal white adipose tissue stromal vascular fraction (eWAT SVF) isolation. eWAT SVF was isolated using standard protocols. Briefly, mice were euthanized, and epididymal fat pads were harvested, washed twice in D-PBS and minced. eWAT pads were digested with 1 U/ml Collagenase-D (Roche) in 1×HBSS containing 1% BSA (Sigma-Aldrich) for 1 hr at 37° C. Digested fat tissue was then strained twice through 100 μm strainers and neutralized with 30 ml of complete culture media (DMEM-F12 1:1, 10% FBS, 1×Penicillin-streptomycin). Samples were spun at 500 g for 5 minutes, shaken to resuspend the SVF pellet and then spun again. The resulting SVF pellet containing blood cells was lysed with ACKS buffer, washed in D-PBS and spun down. Total live SVF cells were counted using trypan blue and then used for various assays.
C12FDG flow cytometry assay. eWAT SVF cells isolated and counted as described above were adjusted to 3×10^6 cells/ml in complete culture media and incubated with 33 μM C12FDG for 1 hr in a 37° C. water bath. Cells were then spun down at 500 g for 5 minutes, washed with Cell Staining buffer, and stained with anti-CD45-APC (clone 30F-11) and anti-CD31-PE-Cy7 (clone 390) each at a 1:200 dilution on ice for 30 minutes. Cells were then washed in Cell Staining buffer and resuspended in Cell Staining buffer containing 1×7-AAD. Samples were analyzed on an Attune acoustic focusing cytometer. Gates were set as follows: cells (FSC-A/SSC-A), forward scatter singlets (FSC-H/FSC-A), side-scatter singlets (SSC-H/SSC-A), live cells (7-AAD^−), non-immune cells (CD45^−), non-endothelial cells (CD31^−) and analyzed for C12FDG fluorescence. […] Data were analyzed with FlowJo (v. 10). For Lung, 1×10^6 cells from each sample were used to perform the assay. The cells were incubated with 66 μm of C12FDG in sterile DMEM containing DNase for 1 hour at 37° C. Following the incubation, the cells were washed with cell staining buffer, blocked with anti CD16/32 mouse monoclonal antibody (1:1000, prepared by the UCSF monoclonal antibody core), and stained with APC anti-mouse CD45 (1:400), and 7-AAD (1:1000). The gating strategy followed selected 7-AAD^−, CD45^−, and C12FDG^+ cells. […]

Compound: CCCCCCCCCCCCCCCCCCCCCCCCCC(=O)N[C@@H](CO[C@H]1O[C@H](CO)[C@H](O)[C@H](O)[C@H]1O)[C@H](O)[C@H](O)CCCCCCCCCCCCCC [GalCer, alpha-Galactosylceramide]
- lung hydroxyproline content (fibrosis) [1]: significantly reduced lung hydroxyproline content
- senescent cells (C12FDG+ SVF cells), Traj18^−/− HFD mice ([2]; HFD fed Traj18^−/− mice (lack invariant TCR chain) injected with GalCer): failed to reduce senescent cells in Traj18^−/− mice
- senescent cells (C12FDG+ SVF cells), WT HFD mice ([2]; HFD fed WT mice injected with GalCer): reduction of senescent cells in WT HFD mice
- number of C12FDG^Hi preadipocytes in eWAT ([2]; HFD mice injected with GalCer (2 μg i.p.) vs vehicle, FIG. 3A): deplete the number of these C12FDG^Hi cells to levels akin to those seen in lean control mice
